From patent publication US6737383B1, “Herbicidal oxadiazolidines” (priority 1999, dated 2004)

Legend:
bedstraw = assay: Test B pre/postemergence bedstraw; format: in vivo, Galium aparine
Procedure, shortened: (§1)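 Test chemicals in a non-phytotoxic solvent mixture with surfactant were sprayed preemergence onto planted seeds and postemergence onto plants 2 to 18 cm tall (1- to 4-leaf stage). After twelve to sixteen days in a greenhouse, injury was visually rated against untreated controls from 0 (no effect) to 10 (complete control).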

blackgrass = assay: Test B pre/postemergence blackgrass; format: in vivo, Alopecurus myosuroides
Procedure, shortened: as §1

surinam grass = assay: Test B pre/postemergence surinam grass; format: in vivo, Brachiaria decumbens
Procedure, shortened: as §1

cocklebur = assay: Test B pre/postemergence cocklebur; format: in vivo, Xanthium strumarium
Procedure, shortened: as §1

corn = assay: Test B pre/postemergence corn; format: in vivo, Zea mays
Procedure, shortened: as §1

crabgrass = assay: Test B pre/postemergence crabgrass; format: in vivo, Digitaria sanguinalis
Procedure, shortened: as §1

giant foxtail = assay: Test B pre/postemergence giant foxtail; format: in vivo, Setaria faberii
Procedure, shortened: as §1

morningglory = assay: Test B pre/postemergence morningglory; format: in vivo, Ipomoea hederacea
Procedure, shortened: as §1

soybean = assay: Test B pre/postemergence soybean; format: in vivo, Glycine max
Procedure, shortened: as §1

velvetleaf = assay: Test B pre/postemergence velvetleaf; format: in vivo, Abutilon theophrasti
Procedure, shortened: as §1

wheat = assay: Test B pre/postemergence wheat; format: in vivo, Triticum aestivum
Procedure, shortened: as §1

wild oat = assay: Test B pre/postemergence wild oat; format: in vivo, Avena fatua
Procedure, shortened: as §1

purple nutsedge = assay: Test B pre/postemergence purple nutsedge; format: in vivo, Cyperus rotundus
Procedure, shortened: as §1

rice = assay: Test B flood test rice; format: in vivo, Oryza sativa
Procedure, shortened: (§2)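 Each value is a visual injury score relative to controls, with 10 meaning complete control and 0 no effect. Evaluation took place twelve to sixteen days after the 2-leaf-stage plants were treated and kept in the greenhouse.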

smallflower flatsedge = assay: Test B flood test smallflower flatsedge; format: in vivo, Cyperus difformis
Procedure, shortened: as §2

duck salad = assay: Test B flood test duck salad; format: in vivo, Heteranthera limosa
Procedure, shortened: as §2

bamyardgrass = assay: Test B flood test barnyardgrass; format: in vivo, Echinochloa crus-galli
Procedure, shortened: as §2

[1] = Postemergence, Rate 125 g/ha, scale of 0 to 10 where 0 is no effect and 10 is complete control
[2] = Preemergence, Rate 62 g/ha, scale of 0 to 10 where 0 is no effect and 10 is complete control
[3] = Preemergence, Rate 125 g/ha, 0 is no effect, 10 is complete control
[4] = Preemergence, Rate 250 g/ha, scale 0 to 10, 0 is no effect, 10 is complete control
[5] = Preemergence, Rate 500 g/ha, scale 0 to 10 (0 no effect, 10 complete control)
[6] = Rate 62 g/ha, Postemergence, scale of 0 to 10 where 0 is no effect and 10 is complete control
[7] = Rate 250 g/ha, Postemergence, scale 0 to 10, 0 is no effect, 10 is complete control
[8] = Rate 500 g/ha, Postemergence, scale 0 to 10
[9] = Postemergence (flood test species), Rate 125 g/ha, scale of 0 to 10 where 0 is no effect and 10 is complete control
[10] = Rate 62 g/ha, Postemergence section, flood test species, scale of 0 to 10 where 0 is no effect and 10 is complete control
[11] = Rate 250 g/ha, Postemergence (flood test), scale 0 to 10, 0 is no effect, 10 is complete control
[12] = Rate 500 g/ha, listed under Postemergence (flood test species), scale 0 to 10

CC(C)Cn1c(=O)on(C(=O)N(c2ccc(F)cc2)C(C)C)c1=O [Compound 169]
Bedstraw plant response rating (bedstraw; [1]): 2
Bedstraw plant response rating (bedstraw; [2]): 0
Bedstraw plant response rating (0 to 10 scale) (bedstraw; [3]): 0
Bedstraw plant response rating (bedstraw; [4]): 7
Bedstraw plant response rating (bedstraw; [5]): 10
Bedstraw plant response rating (bedstraw; [6]): 2
Plant response rating, Bedstraw (bedstraw; [7]): 7
Blackgrass plant response rating (blackgrass; [1]): 4
Blackgrass plant response rating (blackgrass; [2]): 3
Blackgrass plant response rating (0 to 10 scale) (blackgrass; [3]): 3
Blackgrass plant response rating (blackgrass; [4]): 8
Blackgrass plant response rating (blackgrass; [5]): 10
Blackgrass plant response rating (blackgrass; [6]): 2
Plant response rating, Blackgrass (blackgrass; [7]): 5
Blackgrass plant response rating (blackgrass; [8]): 9
B. signalgrass plant response rating (surinam grass; [1]): 0
B. signalgrass plant response rating (surinam grass; [2]): 7
B. signalgrass plant response rating (0 to 10 scale) (surinam grass; [3]): 7
B. signalgrass plant response rating (surinam grass; [4]): 7
B. signalgrass plant response rating (surinam grass; [5]): 7
B. signalgrass plant response rating (surinam grass; [6]): 0
Plant response rating, B. signalgrass (surinam grass; [7]): 0
B. signalgrass plant response rating (surinam grass; Rate 500 g/ha, Postemergence, scale 0 to 10, 0 no effect, 10 complete control): 7
Cocklebur plant response rating (cocklebur; [1]): 0
Cocklebur plant response rating (cocklebur; [2]): 0
Cocklebur plant response rating (0 to 10 scale) (cocklebur; [3]): 0
Cocklebur plant response rating (cocklebur; [4]): 0
Cocklebur plant response rating (cocklebur; [5]): 0
Cocklebur plant response rating (cocklebur; [6]): 0
Plant response rating, Cocklebur (cocklebur; [7]): 0
Cocklebur plant response rating (cocklebur; [8]): 3
Corn plant response rating (corn; [1]): 0
Corn plant response rating (corn; [2]): 0
Corn plant response rating (0 to 10 scale) (corn; [3]): 0
Corn plant response rating (corn; [4]): 3
Corn plant response rating (corn; [5]): 6
Corn plant response rating (corn; [6]): 0
Plant response rating, Corn (corn; [7]): 0
Corn plant response rating (corn; [8]): 0
Crabgrass plant response rating (crabgrass; [1]): 8
Crabgrass plant response rating (crabgrass; [2]): 8
Crabgrass plant response rating (0 to 10 scale) (crabgrass; [3]): 8
Crabgrass plant response rating (crabgrass; [4]): 10
Crabgrass plant response rating (crabgrass; [5]): 10
Crabgrass plant response rating (crabgrass; [6]): 2
Plant response rating, Crabgrass (crabgrass; [7]): 9
Crabgrass plant response rating (crabgrass; [8]): 9
Giant foxtail plant response rating (giant foxtail; [1]): 2
Giant foxtail plant response rating (giant foxtail; [2]): 10
Giant foxtail plant response rating (0 to 10 scale) (giant foxtail; [3]): 10
Giant foxtail plant response rating (giant foxtail; [4]): 10
Giant foxtail plant response rating (giant foxtail; [5]): 10
Giant foxtail plant response rating (giant foxtail; [6]): 0
Plant response rating, Giant foxtail (giant foxtail; [7]): 6
Giant foxtail plant response rating (giant foxtail; [8]): 9
Morningglory plant response rating (morningglory; [1]): 1
Morningglory plant response rating (morningglory; [2]): 0
Morningglory plant response rating (0 to 10 scale) (morningglory; [3]): 0
Morningglory plant response rating (morningglory; [4]): 0
Morningglory plant response rating (morningglory; [5]): 0
Morningglory plant response rating (morningglory; [6]): 1
Plant response rating, Morningglory (morningglory; [7]): 5
Morningglory plant response rating (morningglory; [8]): 7
Soybean plant response rating (soybean; [1]): 1
Soybean plant response rating (soybean; [2]): 0
Soybean plant response rating (0 to 10 scale) (soybean; [3]): 0
Soybean plant response rating (soybean; [4]): 2
Soybean plant response rating (soybean; [5]): 5
Soybean plant response rating (soybean; [6]): 1
Plant response rating, Soybean (soybean; [7]): 3
Soybean plant response rating (soybean; [8]): 6
Velvetleaf plant response rating (velvetleaf; [2]): 2
Velvetleaf plant response rating (0 to 10 scale) (velvetleaf; [3]): 2
Velvetleaf plant response rating (velvetleaf; [4]): 6
Velvetleaf plant response rating (velvetleaf; [5]): 8
Plant response rating, Velvetleaf (velvetleaf; [7]): 0
Velvetleaf plant response rating (velvetleaf; [8]): 0
Wheat plant response rating (wheat; [2]): 0
Wheat plant response rating (0 to 10 scale) (wheat; [3]): 0
Wheat plant response rating (wheat; [4]): 3
Wheat plant response rating (wheat; [5]): 4
Plant response rating, Wheat (wheat; [7]): 0
Wheat plant response rating (wheat; [8]): 2
Wild oats plant response rating (wild oat; [2]): 8
Wild oats plant response rating (0 to 10 scale) (wild oat; [3]): 8
Wild oats plant response rating (wild oat; [4]): 8
Wild oats plant response rating (wild oat; [5]): 10
Plant response rating, Wild oats (wild oat; [7]): 0
Wild oats plant response rating (wild oat; [8]): 2
Nutsedge plant response rating (purple nutsedge; [1]): 0
Nutsedge plant response rating (purple nutsedge; [2]): 0
Nutsedge plant response rating (0 to 10 scale) (purple nutsedge; [3]): 0
Nutsedge plant response rating (purple nutsedge; [4]): 0
Nutsedge plant response rating (purple nutsedge; [5]): 3
Nutsedge plant response rating (purple nutsedge; [6]): 0
Plant response rating, Nutsedge (purple nutsedge; [7]): 0
Nutsedge plant response rating (purple nutsedge; [8]): 0
Rice plant response rating (rice; [9]): 0
Rice plant response rating (rice; [10]): 0
Plant response rating, Rice (rice; [11]): 0
Rice plant response rating (rice; [12]): 0
S. Flatsedge plant response rating (smallflower flatsedge; [9]): 0
S. Flatsedge plant response rating (smallflower flatsedge; [10]): 0
Plant response rating, S. Flatsedge (smallflower flatsedge; [11]): 0
S. Flatsedge plant response rating (smallflower flatsedge; [12]): 0
Ducksalad plant response rating (duck salad; [9]): 0
Ducksalad plant response rating (duck salad; [10]): 0
Plant response rating, Ducksalad (duck salad; [11]): 0
Ducksalad plant response rating (duck salad; [12]): 0
Barnyardgrass plant response rating (bamyardgrass; [9]): 0
Barnyardgrass plant response rating (bamyardgrass; [10]): 0
Plant response rating, Barnyardgrass (bamyardgrass; [11]): 0
Barnyardgrass plant response rating (bamyardgrass; [12]): 0
